# Measured values reported in ChEMBL document CHEMBL3627619, “Synthesis and biological profiling of 6- or 7-(het)aryl-7-deazapurine 4'-C-methylribonucleosides” (Bioorg Med Chem, 2015).
# Columns and labels:
# Hepatitis C virus = assay: Antiviral activity against Hepatitis C virus subtype 1b replicon infected in human HuH7 cells; assay type: functional, cell-based, Hepacivirus hominis; conditions: genotype 1b, Huh-7
# [1] = Cytotoxicity against human BJ cells after 3 days by MTT assay; assay type: cell-based
# [2] = Cytotoxicity against human MRC5 cells after 3 days by MTT assay; assay type: cell-based
# CCRF-CEM = assay: Cytotoxicity against human CCRF-CEM cells after 3 days by MTT assay; assay type: functional, cell-based; conditions: 72 h
# [3] = Cytotoxicity against human CEM/DNR cells after 3 days by MTT assay; assay type: functional, cell-based; conditions: 72 h
# K562 = assay: Cytotoxicity against human K562 cells after 3 days by MTT assay; assay type: functional, cell-based; conditions: K562, 72 h
# [4] = Cytotoxicity against human K562-TAX cells after 3 days by MTT assay; assay type: functional, cell-based; conditions: 72 h
# A549 = assay: Cytotoxicity against human A549 cells after 3 days by MTT assay; assay type: functional, cell-based; conditions: A549, 72 h
# HCT-116 [5] = assay: Cytotoxicity against human HCT116 cells after 3 days by MTT assay; assay type: functional, cell-based; conditions: HCT-116, 72 h
# HCT-116 [6] = assay: Cytotoxicity against p53 deficient human HCT116 cells after 3 days by MTT assay; assay type: functional, cell-based; conditions: HCT-116, 72 h
# [7] = Cytotoxicity against human HuH7 cells; assay type: cell-based, Huh-7
# dengue virus type 2 = assay: Antiviral activity against DENV2 infected in African green monkey Vero cells; assay type: functional, organism-based
# [8] = Cytotoxicity against African green monkey Vero cells; assay type: cell-based; conditions: chlorocebus sabaeus
# [9] = Selectivity index, ratio of CC50 for human HuH7 cells to EC50 for Hepatitis C virus subtype 1b replicon infected in human HuH7 cells; assay type: toxicity, cell-based, Huh-7; conditions: read-out: Ratio CC50/EC50
SMILES,EC50 (Hepatitis C virus),CC50 at 72 h [1],CC50 at 72 h [2],IC50 (CCRF-CEM),IC50 [3],IC50 (K562),IC50 [4],IC50 (A549),IC50 (HCT-116 [5]),IC50 (HCT-116 [6]),CC50 [7],EC50 (dengue virus type 2),CC50 [8],selectivity ratio [9]
C[C@]1(CO)O[C@@H](n2cc(I)c3c(N)ncnc32)[C@H](O)[C@@H]1O,3.75 µM,42.4 µM,40.8 µM,10.2 µM,27.9 µM,20.4 µM,9.46 µM,5.92 µM,5.25 µM,5.87 µM,27.1 µM,5.55 µM,8.08 µM,7.2
C[C@]1(CO)O[C@@H](n2cc(-c3ccco3)c3c(N)ncnc32)[C@H](O)[C@@H]1O,20 µM,–,–,–,–,–,–,–,–,–,> 44 µM,> 50 µM,> 50 µM,–
C[C@]1(CO)O[C@@H](n2cc(-c3cccs3)c3c(N)ncnc32)[C@H](O)[C@@H]1O,17.9 µM,–,–,–,–,–,–,–,–,–,> 44 µM,> 50 µM,> 50 µM,–
C[C@]1(CO)O[C@@H](n2cc(-c3ccsc3)c3c(N)ncnc32)[C@H](O)[C@@H]1O,40.6 µM,–,–,–,–,–,–,–,–,–,> 44 µM,> 50 µM,> 50 µM,–
C[C@]1(CO)O[C@@H](n2cc(-c3cc4ccccc4o3)c3c(N)ncnc32)[C@H](O)[C@@H]1O,4.48 µM,104 µM,83.7 µM,16.6 µM,8.94 µM,9.64 µM,8.82 µM,7.13 µM,9.75 µM,10.7 µM,31.1 µM,10.1 µM,27 µM,–
C#Cc1cn([C@@H]2O[C@](C)(CO)[C@@H](O)[C@H]2O)c2ncnc(N)c12,6.27 µM,126 µM,125 µM,30.3 µM,38.4 µM,31.1 µM,27.4 µM,9.55 µM,8.79 µM,10.2 µM,32.2 µM,4.59 µM,13.4 µM,–
C[C@]1(CO)O[C@@H](n2ccc3c(-c4cc5ccccc5o4)ncnc32)[C@H](O)[C@@H]1O,7.62 µM,–,–,–,–,–,–,–,–,–,> 44 µM,> 50 µM,> 50 µM,–
CCOC(=O)[C@H](C)NP(=O)(OC[C@@]1(C)O[C@@H](n2cc(-c3ccco3)c3c(N)ncnc32)[C@H](O)[C@@H]1O)Oc1ccccc1 (stereo not given in full),> 44 µM,–,–,–,–,–,–,–,–,–,20.8 µM,–,–,–
CCOC(=O)[C@H](C)NP(=O)(OC[C@@]1(C)O[C@@H](n2cc(-c3cccs3)c3c(N)ncnc32)[C@H](O)[C@@H]1O)Oc1ccccc1 (stereo not given in full),23.2 µM,–,–,–,–,–,–,–,–,–,13 µM,–,–,–
CCOC(=O)[C@H](C)NP(=O)(OC[C@@]1(C)O[C@@H](n2cc(-c3ccccc3)c3c(N)ncnc32)[C@H](O)[C@@H]1O)Oc1ccccc1 (stereo not given in full),18 µM,–,–,–,–,–,–,–,–,–,9.1 µM,–,–,–
CCOC(=O)[C@H](C)NP(=O)(OC[C@@]1(C)O[C@@H](n2ccc3c(-c4ccco4)ncnc32)[C@H](O)[C@@H]1O)Oc1ccccc1 (stereo not given in full),17.6 µM,–,–,–,–,–,–,–,–,–,27.9 µM,> 50 µM,> 50 µM,–
CCOC(=O)[C@H](C)NP(=O)(OC[C@@]1(C)O[C@@H](n2ccc3c(-c4cccs4)ncnc32)[C@H](O)[C@@H]1O)Oc1ccccc1 (stereo not given in full),3.32 µM,83.1 µM,106 µM,12.3 µM,43.1 µM,22.9 µM,33.6 µM,22.2 µM,19.4 µM,22 µM,3.64 µM,–,–,–
CCOC(=O)[C@H](C)NP(=O)(OC[C@@]1(C)O[C@@H](n2ccc3c(-c4ccccc4)ncnc32)[C@H](O)[C@@H]1O)Oc1ccccc1 (stereo not given in full),16.5 µM,75.3 µM,108 µM,17.4 µM,43.6 µM,29.9 µM,35.4 µM,25.9 µM,22.2 µM,22.8 µM,> 44 µM,> 50 µM,> 50 µM,–
